The subject of data set [1] is subjects with atopic dermatitis. The data set can be described thus: Phase 2 study, tolerability and Treatment Emergent Adverse Events. In kind it is in vivo, human. Here is the method:
Oral Difelikefalin 0.25 mg, 0.5 mg, 1.0 mg, or placebo was administered twice daily (BID) in subjects with atopic dermatitis (baseline validated Investigator's Global Assessment scale for AD: vIGA-ADTM≥2 and body surface area [BSA]≤30%) and moderate-to-severe AD-related pruritus (mean baseline Itch Numerical Rating Scale [I-NRS, 0-10 scale] score ≥5.0). The primary and key secondary endpoints were the change from baseline in the weekly mean of the daily I-NRS score at Week 12, and the proportion of subjects achieving at least a 4-point improvement from baseline in I-NRS score at Week 12, respectively.
There were no deaths in the study. Abdominal pain was the most common TEAE leading to study drug discontinuation in the 1.0 mg dose group (6.5%), compared to placebo (1.6%), 0.25 mg (0%) and 0.5 mg (0%) dose groups.

Another data set can be described thus: Solubility in water. The conditions noted are these: acetate salt. In kind it is physicochemical.

We go through 2 compounds from patent US20230285497A1, “ATOPIC […] WITH KAPPA OPIOID RECEPTOR AGONIST AS ADJUNCT TO TOPICAL CORTICOSTEROID” (Cara Therapeutics, Inc., priority 2022, published 2023).

As for `CC(C)C[C@@H](NC(=O)[C@@H](Cc1ccccc1)NC(=O)[C@H](N)Cc1ccccc1)C(=O)N[C@H](CCCCN)C(=O)N1CCC(N)(C(=O)O)CC1` [Difelikefalin], the “abdominal pain TEAE leading to study drug discontinuation” value is recorded as 0% in data set [1] (0.25 mg dose group), 0% in data set [1] (0.5 mg dose group) and 6.5% in data set [1] (1.0 mg dose group). For the same compound, in data set [1] (in vivo), the “deaths in the study” value is “no deaths”. In addition, the “severity of the majority of reported TEAEs” value in data set [1] (in vivo) is on record as “mild or moderate”. Moreover, the overall tolerability entry in data set [1] (oral, twice daily, 12-week Treatment Period) is given as “generally well-tolerated”. For the same compound, the “most common Treatment Emergent Adverse Events (TEAEs)” value in data set [1] (≥5% in any dose group) was “abdominal pain, nausea, dry mouth, headache, dizziness and hypertension”.

Regarding `CC(=O)O.CC(C)C[C@@H](NC(=O)[C@@H](Cc1ccccc1)NC(=O)[C@H](N)Cc1ccccc1)C(=O)N[C@H](CCCCN)C(=O)N1CCC(N)(C(=O)O)CC1` [Difelikefalin acetate, 4-amino-1-(D-phenylalanyl-D-phenylalanyl-D-leucyl-D-lysyl)piperidine-4-carboxylic acid, acetate salt], the solubility in water result in “Solubility in water” was “soluble in water”.
